Data as given in paper PMC7926793, “Synthesis and Biological Evaluation of 1-(Diarylmethyl)-1H-1,2,4-triazoles and 1-(Diarylmethyl)-1H-imidazoles as a Novel Class of Anti-Mitotic Agent for Activity in Breast Cancer” (Pharmaceuticals, 2021).
Where two headings read alike, the source gives them in different places.

How the values were obtained:
[1] = system: NCI/ADR-RES; assay: NCI 60 cell line screen (Ovarian Cancer); assay type: cell-based, human
[2] = system: CAKI-1; assay: NCI 60 cell line screen (Renal Cancer); assay type: cell-based, human
[3] = system: PC-3; assay: NCI 60 cell line screen (Prostate cancer); assay type: cell-based, human
[4] = system: HCT-116; assay: NCI 60 cell line screen (Colon Cancer); assay type: cell-based, human
[5] = system: BT-549; assay: NCI 60 cell line screen (Breast Cancer); assay type: cell-based, human
[6] = system: NCI-H23; assay: NCI 60 cell line screen (Non-Small Cell Lung Cancer); assay type: cell-based, human
[7] = system: MDA-MB-435; assay: NCI 60 cell line screen (Melanoma); assay type: cell-based, human
[8] = system: NCI-H460; assay: NCI 60 cell line screen (Non-Small Cell Lung Cancer); assay type: cell-based, human
[9] = system: OVCAR-5; assay: NCI 60 cell line screen (Ovarian Cancer); assay type: cell-based, human
[10] = system: SNB-19; assay: NCI 60 cell line screen (CNS Cancer); assay type: cell-based, human
[11] = system: HOP-92; assay: NCI 60 cell line screen (Non-Small Cell Lung Cancer); assay type: cell-based, human
[12] = system: U251 (AC in Table 3); assay: NCI 60 cell line screen (CNS Cancer); assay type: cell-based, human
[13] = system: HOP-62; assay: NCI 60 cell line screen (Non-Small Cell Lung Cancer); assay type: cell-based, human
[14] = system: UACC-257; assay: NCI 60 cell line screen (Melanoma); assay type: cell-based, human
[15] = system: T-47D; assay: NCI 60 cell line screen (Breast Cancer); assay type: cell-based, human; conditions: single dose 10 µM
[16] = system: COLO 205; assay: NCI 60 cell line screen (Colon Cancer); assay type: cell-based, human
[17] = system: TK-10; assay: NCI 60 cell line screen (Renal Cancer); assay type: cell-based, human; conditions: TK-10, single dose 10 µM
[18] = system: 786-0; assay: NCI 60 cell line screen (Renal Cancer); assay type: cell-based, human
[19] = toxicity evaluation, alamarBlue assay; assay type: cell-based, human; conditions: human, MCF-10A cells
[20] = system: NCI-H552; assay: NCI 60 cell line screen (Non-Small Cell Lung Cancer); assay type: cell-based, human
[21] = system: MALME-3M; assay: NCI 60 cell line screen (Melanoma); assay type: cell-based, human; conditions: single dose 10 µM
[22] = system: SW-620; assay: NCI 60 cell line screen (Colon Cancer); assay type: cell-based, human
[23] = system: RXF 393; assay: NCI 60 cell line screen (Renal Cancer); assay type: cell-based, human; conditions: RXF 393, single dose 10 µM
[24] = system: OVCAR-3; assay: NCI 60 cell line screen (Ovarian Cancer); assay type: cell-based, human
[25] = system: A549/ATCC; assay: NCI 60 cell line screen (Non-Small Cell Lung Cancer); assay type: cell-based, human
[26] = system: KM12; assay: NCI 60 cell line screen (Colon Cancer); assay type: cell-based, human
[27] = system: OVCAR-4; assay: NCI 60 cell line screen (Ovarian Cancer); assay type: cell-based, human
[28] = system: RPMI-8226; assay: NCI 60 cell line screen (Leukemia); assay type: cell-based, human
[29] = system: HCT-2998; assay: NCI 60 cell line screen (Colon Cancer); assay type: cell-based, human
[30] = molecular target: T1, CYP1A1 (Homo sapiens, UniProt P04798); assay: cytochrome P450 assay (DBF fluorescence)
T1 sequence (P04798 1-512): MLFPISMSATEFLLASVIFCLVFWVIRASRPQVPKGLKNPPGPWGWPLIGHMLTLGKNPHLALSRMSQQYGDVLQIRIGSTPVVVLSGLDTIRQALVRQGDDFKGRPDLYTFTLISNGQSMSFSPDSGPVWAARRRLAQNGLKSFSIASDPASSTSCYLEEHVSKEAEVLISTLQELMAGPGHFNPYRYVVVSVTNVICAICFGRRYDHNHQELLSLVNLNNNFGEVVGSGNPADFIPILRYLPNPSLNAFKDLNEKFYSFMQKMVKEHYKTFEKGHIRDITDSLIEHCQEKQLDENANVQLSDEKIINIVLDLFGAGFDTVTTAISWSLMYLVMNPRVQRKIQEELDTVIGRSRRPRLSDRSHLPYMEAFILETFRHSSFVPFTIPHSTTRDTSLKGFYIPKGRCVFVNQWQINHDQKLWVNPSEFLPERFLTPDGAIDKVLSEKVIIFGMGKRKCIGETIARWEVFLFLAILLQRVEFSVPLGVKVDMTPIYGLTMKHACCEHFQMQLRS

[31] = system: NCI 60 cell line panel; assay: NCI 60 cell line screen, panel means; assay type: cell-based, human; conditions: for GI50 / LC50 (50% lethal concentration): Homo sapiens
[32] = system: SNB-75; assay: NCI 60 cell line screen (CNS Cancer); assay type: cell-based, human

Compound: COc1ccc(C(c2cc(OC)c(OC)c(OC)c2)n2ccnc2)cc1O (stereo not drawn) [21l, 5-((1H-Imidazol-1-yl)(3,4,5-Trimethoxyphenyl)Methyl)-2-Methoxyphenol]
- GI50 ([1]; Homo sapiens, NCI 5 dose assay): 1920 nM
- Growth percentage ([1]; single dose 10 µM): 12.06%
- Growth percentage ([2]; CAKI-1, single dose 10 µM): 41.26%
- GI50 ([2]; Homo sapiens, CAKI-1, NCI 5 dose assay): 681 nM
- GI50 ([3]; Homo sapiens, PC-3, NCI 5 dose assay): 384 nM
- Growth percentage ([3]; PC-3, single dose 10 µM): 20.69%
- Growth percentage ([4]; HCT-116, single dose 10 µM): 6.88%
- GI50 ([4]; Homo sapiens, HCT-116, NCI 5 dose assay): 249 nM
- Growth percentage ([5]; BT-549, single dose 10 µM): -0.07%
- GI50 ([5]; Homo sapiens, BT-549, NCI 5 dose assay): 306 nM
- GI50 ([6]; Homo sapiens, NCI-H23, NCI 5 dose assay): 882 nM
- Growth percentage ([6]; NCI-H23, single dose 10 µM): 38.92%
- GI50 ([7]; Homo sapiens, MDA-MB-435, NCI 5 dose assay): 119 nM
- Growth percentage ([7]; MDA-MB-435, single dose 10 µM): -29.47%
- GI50 ([8]; Homo sapiens, NCI-H460, NCI 5 dose assay): 377 nM
- Growth percentage ([8]; NCI-H460, single dose 10 µM): 6.11%
- GI50 ([9]; Homo sapiens, OVCAR-5, NCI 5 dose assay): 648 nM
- Growth percentage ([9]; OVCAR-5, single dose 10 µM): 71.11%
- GI50 ([10]; Homo sapiens, SNB-19, NCI 5 dose assay): 532 nM
- Growth percentage ([10]; SNB-19, single dose 10 µM): 30.51%
- Growth percentage ([11]; HOP-92, single dose 10 µM): 25.77%
- GI50 ([11]; Homo sapiens, HOP-92, NCI 5 dose assay): 28600 nM
- GI50 ([12]; Homo sapiens, U-251, cell line printed AC, NCI 5 dose assay): 391 nM
- Growth percentage ([12]; U251, single dose 10 µM): 15.52%
- Growth percentage ([13]; HOP-62, single dose 10 µM): 29.46%
- GI50 ([13]; Homo sapiens, HOP-62, NCI 5 dose assay): 516 nM
- GI50 ([14]; Homo sapiens, UACC-257, NCI 5 dose assay): 1440 nM
- Growth percentage ([14]; UACC-257, single dose 10 µM): 37.75%
- Growth percentage [15]: 42.62%
- Growth percentage ([16]; COLO 205, single dose 10 µM): -9.99%
- GI50 ([16]; Homo sapiens, COLO 205, NCI 5 dose assay): 361 nM
- Growth percentage [17]: 52.86%
- Growth percentage ([18]; 786-0, single dose 10 µM): 19.99%
- GI50 ([18]; Homo sapiens, 786-0, NCI 5 dose assay): 369 nM
- viability at 48 h, 0.4 µM ([19]; 0.4 μM, 48 h): ~100%
- viability at 48 h, 0.5 µM ([19]; 0.5 μM, 48 h): ~100%
- viability at 24 h, 1 µM ([19]; 1 μM, 24 h, read-out: cell viability): 73%
- viability at 48 h, 1 µM ([19]; 1 μM, 48 h, read-out: percentage of viable cells): 64%
- viability at 72 h, 1 µM ([19]; 1 μM, 72 h, read-out: percentage of viable cells): > 80%
- viability at 48 h, 10 µM ([19]; 10 μM, 48 h, read-out: percentage of viable cells): ~30%
- GI50 ([20]; Homo sapiens, 60 cell, NCI-H552, NCI 5 dose assay): 247 nM
- Growth percentage ([20]; NCI-H552, single dose 10 µM): 12.12%
- Growth percentage [21]: 66.57%
- GI50 ([22]; Homo sapiens, SW-620, NCI 5 dose assay): 387 nM
- Growth percentage ([22]; SW-620, single dose 10 µM): 28.61%
- Growth percentage [23]: -5.38%
- GI50 ([24]; Homo sapiens, OVCAR-3, NCI 5 dose assay): 264 nM
- Growth percentage ([24]; OVCAR-3, single dose 10 µM): -9.52%
- GI50 ([25]; Homo sapiens, NCI 5 dose assay): 836 nM
- Growth percentage ([25]; single dose 10 µM): 12.80%
- GI50 ([26]; Homo sapiens, KM12, NCI 5 dose assay): 389 nM
- Growth percentage ([26]; KM12, single dose 10 µM): 17.05%
- GI50 ([27]; Homo sapiens, OVCAR-4, NCI 5 dose assay): 3440 nM
- Growth percentage ([27]; OVCAR-4, single dose 10 µM): 73.56%
- GI50 ([28]; Homo sapiens, RPMI-8226, NCI 5 dose assay): 385 nM
- Growth percentage ([28]; RPMI-8226, single dose 10 µM): 18.86%
- Growth percentage ([29]; HCT-2998, single dose 10 µM): 24.97%
- GI50 ([29]; Homo sapiens, 60 cell, HCT-2998, NCI 5 dose assay): 1720 nM
- IC50 ([30]; IC50 CYP1A1): > 54000 nM
- inhibition at 25 min, 20 µg/mL ([30]; human, recombinant CYP1A1, pH 7.4, probe dibenzylfluorescein (DBF), 2.0 μM): 18.4%
- Mean Growth percentage ([31]; 60 cell line panel, single dose 10 µM): 23.38%
- MID TGI (total growth inhibition) ([31]; 60 cell lines): 40700 nM
- GI50 ([31]; 60 cell, CNS cancer cell lines, read-out: GI50 range): 192 to 731 nM
- GI50 ([31]; 60 cell, NCI 5 dose assay, 60 cell lines, read-out: MG-MID (mean of GI50 values over all cell lines)): 234 nM
- GI50 ([31]; 60 cell, breast cancer panel, read-out: GI50 range): 306 to 664 nM
- LC50 (50% lethal concentration) ([31]; 60 cell, COMPARE analysis text, read-out: LC50 values (all)): > 100000 nM
- LC50 (50% lethal concentration) ([31]; 60 cell lines, read-out: MID LC50): > 100000 nM
- GI50 ([32]; Homo sapiens, SNB-75, NCI 5 dose assay): 192 nM
- Growth percentage ([32]; SNB-75, single dose 10 µM): 56.72%
